From patent US6495559B2, “NPY Y5 receptor antagonists” (Merck & Co., Inc., priority 1998, dated 2002)

First: CS(=O)(=O)N1CC2(CCN(C(=O)Nc3ccc(-c4ccncc4)cc3)CC2)c2ccccc21
Second: CCc1cc(-c2ccc(NC(=O)N3CCC4(CC3)CN(S(C)(=O)=O)c3ccccc34)cc2)ccn1.Cl
The melting point of the first is higher: 272 to 274 °C for the first, 220 to 222 °C for the second.

`CS(=O)(=O)N1CC2(CCN(C(=O)Nc3ccc(C(=O)c4ccccc4)cc3)CC2)c2ccccc21.Cl` and `CS(=O)(=O)N1CC2(CCN(C(=O)Nc3ccc(-c4ccccc4)nc3)CC2)c2ccccc21` [Compound 114, 1-methylsulfonyl-N-(2-phenyl-5-pyridyl)spiro[indoline-3,4′-piperidine]-1′-carboxamide] cannot be ordered by melting point: 222 to 225 °C for the first, 224 °C for the second.

First: CS(=O)(=O)N1CC2(CCN(C(=O)Nc3cc(-c4ccccc4)no3)CC2)c2ccccc21
Second: CS(=O)(=O)N1CC2(CCN(C(=O)Nc3nc(-c4ccccc4)co3)CC2)c2ccccc21 [Compound 119, 1-methylsulfonyl-N-(4-phenyloxazol-2-yl)spiro[indoline-3,4′-piperidine]-1′-carboxamide]
The melting point of the first is higher: 235 to 237 °C for the first, 189 to 192 °C for the second.

First: CCS(=O)(=O)N1CC2(CCN(C(=O)Nc3cn(-c4ccccc4)cn3)CC2)c2ccccc21.Cl
Second: CCS(=O)(=O)N1CC2(CCN(C(=O)Nc3cn(-c4ccccc4)cn3)CC2)c2cc(F)ccc21.Cl
The melting point of the first is lower: 139 to 140 °C for the first, 140 to 141 °C for the second.

Compared with `CS(=O)(=O)N1CC2(CCN(C(=O)Nc3cnc(-c4cccc(F)c4)cn3)CC2)c2ccccc21` [Compound 101, N-[5-(3-fluorophenyl)-2-pyrazinyl]-1-methylsulfonylspiro[indoline-3,4′-piperidine]-1′-carboxamide], `CS(=O)(=O)N1CC2(CCN(C(=O)Nc3cnc(-c4ccccc4)cn3)CC2)c2ccc(F)cc21` [Compound 139, 6-fluoro-1-methylsulfonyl-N-(5-phenyl-2-pyrazinyl)spiro[indoline-3,4′-piperidine]-1′-carboxamide] is higher in melting point: 203 to 205 °C for the first, 234 to 237 °C for the second.

First: COc1ccccc1-c1cnc(NC(=O)N2CCC3(CC2)CN(S(C)(=O)=O)c2ccccc23)cn1 [Compound 102, N-[5-(2-methoxyphenyl)-2-pyrazinyl]-1-methylsulfonylspiro[indoline-3,4′-piperidine]-1′-carboxamide]
Second: CS(=O)(=O)N1CC2(CCN(C(=O)Nc3cnc(-c4ccccc4Cl)cn3)CC2)c2ccccc21 [Compound 103, N-[5-(2-chlorophenyl)-2-pyrazinyl]-1-methylsulfonylspiro[indoline-3,4′-piperidine]-1′-carboxamide]
The melting point of the first is lower: 186 to 188 °C for the first, 197 to 199 °C for the second.

`CS(=O)(=O)N1CC2(CCN(C(=O)Nc3cnc(-c4ccccn4)cn3)CC2)c2ccccc21` [Compound 104, 1-methylsulfonyl-N-[5-(2-pyridyl)-2-pyrazinyl]spiro[indoline-3,4′-piperidine]-1′-carboxamide] and `CS(=O)(=O)N1CC2(CCN(C(=O)Nc3cnc(-c4ncns4)cn3)CC2)c2ccccc21` [Compound 147, 1-methylsulfonyl-N-[5-(1,2,4-thiadiazol-5-yl)-2-pyrazinyl]spiro[indoline-3,4′-piperidine]-1′-carboxamide] cannot be ordered by melting point: 234 to 235 °C for the first, 234 to 238 °C for the second.

First: C=CCc1cnc(NC(=O)N2CCC3(CC2)CN(S(C)(=O)=O)c2ccccc23)cn1 [Compound 105, 1-methylsulfonyl-N-[5-(2-propenyl)-2-pyrazinyl]spiro[indoline-3,4′-piperidine]-1′-carboxamide]
Second: CS(=O)(=O)N1CC2(CCN(C(=O)Nc3cnc(-c4nncs4)cn3)CC2)c2ccccc21 [Compound 146, 1-methylsulfonyl-N-[5-(1,3,4-thiadiazol-2-yl)-2-pyrazinyl]spiro[indoline-3,4′-piperidine]-1′-carboxamide]
The melting point of the first is lower: 180.5 to 182.7 °C for the first, 247 to 249 °C for the second.

First: CCc1nc(-c2ccc(NC(=O)N3CCC4(CC3)CN(S(C)(=O)=O)c3ccccc34)cc2)cs1 [Compound 107, N-[4-(2-ethyl-4-thiazolyl)phenyl]-1-methylsulfonylspiro[indoline-3,4′-piperidine]-1′-carboxamide]
Second: CS(=O)(=O)N1CC2(CCN(C(=O)Nc3ccc(-c4nccs4)cc3)CC2)c2ccccc21 [Compound 111, 1-methylsulfonyl-N-[4-(2-thiazolyl)phenyl]spiro[indoline-3,4′-piperidine]-1′-carboxamide]
The melting point of the first is higher: 242 to 242.5 °C for the first, 143.2 to 147.4 °C for the second.

Compared with `CS(=O)(=O)N1CC2(CCN(C(=O)Nc3ccc(-c4ccccc4)cn3)CC2)c2ccccc21` [Compound 112, 1-methylsulfonyl-N-(5-phenyl-2-pyridyl)spiro[indoline-3,4′-piperidine]-1′-carboxamide], `CS(=O)(=O)N1CC2(CCN(C(=O)Nc3ncc(-c4ccccc4)cn3)CC2)c2ccccc21` [Compound 115, 1-methylsulfonyl-N-(5-phenyl-2-pyrimidinyl)spiro[indoline-3,4′-piperidine]-1′-carboxamide] is lower in melting point: 214 °C for the first, 122 to 123 °C for the second.

First: CS(=O)(=O)N1CC2(CCN(C(=O)Nc3cnc(-c4ccccc4)nc3)CC2)c2ccccc21 [Compound 113, 1-methylsulfonyl-N-(2-phenyl-5-pyrimidinyl)spiro[indoline-3,4′-piperidine]-1′-carboxamide]
Second: CS(=O)(=O)N1CC2(CCN(C(=O)Nc3nsc(-c4ccccc4)n3)CC2)c2ccccc21 [Compound 123, 1-methylsulfonyl-N-(5-phenyl-1,2,4-thiadiazol-3-yl)spiro[indoline-3,4′-piperidine]-1′-carboxamide]
The melting point of the first is higher: 251 to 253 °C for the first, 133 to 136 °C for the second.

First: CS(=O)(=O)N1CC2(CCN(C(=O)Nc3ccc(N4CCCC4)nc3)CC2)c2ccccc21 [Compound 116, 1-methylsulfonyl-N-[2-(1-pyrrolidinyl)-5-pyridyl]spiro[indoline-3,4′-piperidine]-1′-carboxamide]
Second: CS(=O)(=O)N1CC2(CCN(C(=O)Nc3nc4cc(F)ccc4s3)CC2)c2ccccc21 [Compound 129, N-(5-fluorobenzothiazol-2-yl)-1-methylsulfonylspiro[indoline-3,4′-piperidine]-1′-carboxamide]
The melting point of the first is higher: 252 to 254 °C for the first, 243 to 244 °C for the second.

First: COc1cccc(-n2cnc(NC(=O)N3CCC4(CC3)CN(S(C)(=O)=O)c3ccccc34)c2)c1 [Compound 126, N-[1-(3-methoxyphenyl)imidazol-4-yl]-1-methylsulfonylspiro[indoline-3,4′-piperidine]-1′-carboxamide]
Second: CS(=O)(=O)N1CC2(CCN(C(=O)Nc3cn(-c4cccc(Cl)c4)cn3)CC2)c2ccccc21 [Compound 127, N-[1-(3-chlorophenyl)imidazol-4-yl]-1-methylsulfonylspiro[indoline-3,4′-piperidine]-1′-carboxamide]
The melting point of the first is lower: 216 to 218 °C for the first, 232 to 234 °C for the second.

`COc1cccc2oc(NC(=O)N3CCC4(CC3)CN(S(C)(=O)=O)c3ccccc34)nc12` [Compound 128, N-(4-methoxybenzoxazol-2-yl)-1-methylsulfonylspiro[indoline-3,4′-piperidine]-1′-carboxamide] and `COc1ccc2oc(NC(=O)N3CCC4(CC3)CN(S(C)(=O)=O)c3ccccc34)nc2c1` [Compound 134, N-(5-methoxybenzoxazol-2-yl)-1-methylsulfonylspiro[indoline-3,4′-piperidine]-1′-carboxamide] cannot be ordered by melting point: 195 to 199 °C for the first, 194 to 196 °C for the second.

Compared with `Cc1ccc2nc(NC(=O)N3CCC4(CC3)CN(S(C)(=O)=O)c3ccccc34)cnc2c1` [Compound 130, 1-methylsulfonyl-N-(6-methylquinoxalin-2-yl)spiro[indoline-3,4′-piperidine]-1′-carboxamide], `CS(=O)(=O)N1CC2(CCN(C(=O)Nc3cnc4ccc(Cl)cc4n3)CC2)c2ccccc21` [Compound 132, N-(7-chloroquinoxalin-2-yl)-1-methylsulfonylspiro[indoline-3,4′-piperidine]-1′-carboxamide] is lower in melting point: 224 to 225 °C for the first, 213 to 214 °C for the second.

First: Cc1cccc2ccc(NC(=O)N3CCC4(CC3)CN(S(C)(=O)=O)c3ccccc34)nc12 [Compound 131, 1-methylsulfonyl-N-(8-methylquinolin-2-yl)spiro[indoline-3,4′-piperidine]-1′-carboxamide]
Second: Cc1cccc2sc(NC(=O)N3CCC4(CC3)CN(S(C)(=O)=O)c3ccccc34)nc12 [Compound 137, N-(4-methylbenzothiazol-2-yl)-1-methylsulfonylspiro[indoline-3,4′-piperidine]-1′-carboxamide]
The melting point of the first is higher: 219 to 220 °C for the first, 182 to 183 °C for the second.

First: CS(=O)(=O)N1CC2(CCN(C(=O)Nc3cc4cc(Cl)ccc4[nH]3)CC2)c2ccccc21 [Compound 135, N-(5-chlorobenzoazol-2-yl)-1-methylsulfonylspiro[indoline-3,4′-piperidine]-1′-carboxamide]
Second: CCS(=O)(=O)N1CC2(CCN(C(=O)Nc3cc(-c4ccc(Cl)cc4)on3)CC2)c2ccccc21 [Compound 143, N-[5-(4-chlorophenyl)isoxazol-3-yl]-1-ethylsulfonylspiro[indoline-3,4′-piperidine]-1′-carboxamide]
The melting point of the first is lower: 172 to 176 °C for the first, 178.3 to 178.5 °C for the second.

Compared with `CS(=O)(=O)N1CC2(CCN(C(=O)Nc3cnc(-c4nncs4)cn3)CC2)c2ccc(F)cc21` [Compound 148, 6-fluoro-1-methylsulfonyl-N-[5-(1,3,4-thiadiazol-2-yl)-2-pyrazinyl]spiro[indoline-3,4′-piperidine]-1′-carboxamide], `CS(=O)(=O)N1CC2(CCN(C(=O)Nc3cnc(-c4nncs4)cn3)CC2)c2cc(F)ccc21` [Compound 150, 5-fluoro-1-methylsulfonyl-N-[5-(1,3,4-thiadiazol-2-yl)-2-pyrazinyl]spiro[indoline-3,4′-piperidine]-1′-carboxamide] is higher in melting point: 242 to 243 °C for the first, 262 to 266 °C for the second.

First: CS(=O)(=O)N1CC2(CCN(C(=O)Nc3cnc(-c4ncns4)cn3)CC2)c2ccc(F)cc21 [Compound 149, 6-fluoro-1-methylsulfonyl-N-[5-(1,2,4-thiadiazol-5-yl)-2-pyrazinyl]spiro[indoline-3,4′-piperidine]-1′-carboxamide]
Second: CS(=O)(=O)N1CC2(CCN(C(=O)Nc3cnc(-c4ncns4)cn3)CC2)c2cc(F)ccc21 [Compound 151, 5-fluoro-1-methylsulfonyl-N-[5-(1,2,4-thiadiazol-5-yl)-2-pyrazinyl]spiro[indoline-3,4′-piperidine]-1′-carboxamide]
The melting point of the first is lower: 237 to 239 °C for the first, 239 to 240 °C for the second.
